Key:
[1] = Displacement of [3H]-AMPA from AMPA receptor in Sprague-Dawley rat brain synaptic membranes after 30 mins by scintillation counting method
[2] = Displacement of [3H]-KAIN from kainic acid receptor in Sprague-Dawley rat brain synaptic membranes after 60 mins by scintillation counting method
Glutamate NMDA receptor = assay: Displacement of [3H]-CGP39653 from NMDA receptor in Sprague-Dawley rat brain synaptic membranes after 60 mins by scintillation counting method
[3] = Displacement of [3H]-AMPA from AMPA receptor in rat cortical membranes by scintillation counting method; type: cell membranes
[4] = Displacement of [3H]-KAIN from kainic acid receptor in rat cortical membranes by scintillation counting method; type: cell membranes

| SMILES | IC50 [1] [µM] | IC50 [2] [µM] | Ki (Glutamate NMDA receptor) [µM] | IC50 [3] [µM] | IC50 [4] [µM] | pKi (Glutamate NMDA receptor) |
| --- | --- | --- | --- | --- | --- | --- |
| N[C@@H](C[C@@H]1CC(C(=O)O)=NO1)C(=O)O (racemic) |  |  |  | > 100 | > 100 |  |
| N[C@@H](C[C@H]1CC(C(=O)O)=NO1)C(=O)O (racemic) |  |  |  | > 100 | > 100 |  |
| N[C@@H](C[C@@H]1CC(c2cccc(C(=O)O)c2)=NO1)C(=O)O (racemic) | > 100 | > 100 | 22 |  |  |  |
| N[C@@H](C[C@@H]1CC(c2ccccc2C(=O)O)=NO1)C(=O)O (racemic) | > 100 | > 100 | 3.6 |  |  |  |
| N[C@@H](C[C@H]1CC(c2cccc(C(=O)O)c2)=NO1)C(=O)O (racemic) | > 100 | > 100 | 100 |  |  |  |
| N[C@@H](C[C@@H]1CC(c2ccc(C(=O)O)cc2)=NO1)C(=O)O (racemic) | > 100 | > 100 | > 100 |  |  |  |

Continued, values first:

| IC50 [1] [µM] | IC50 [2] [µM] | Ki (Glutamate NMDA receptor) [µM] | IC50 [3] [µM] | IC50 [4] [µM] | pKi (Glutamate NMDA receptor) | SMILES |
| --- | --- | --- | --- | --- | --- | --- |
| > 100 | > 100 | > 100 |  |  |  | N[C@@H](C[C@@H]1CC(/C=C/C(=O)O)=NO1)C(=O)O (racemic) |
| > 100 | > 100 | > 100 |  |  |  | N[C@@H](C[C@H]1CC(CCC(=O)O)=NO1)C(=O)O (racemic) |
| > 100 | > 100 | > 100 |  |  |  | N[C@@H](C[C@H]1CC(c2ccc(C(=O)O)cc2)=NO1)C(=O)O (racemic) |
| > 100 | > 100 | 22 |  |  | 4.69 | N[C@@H](C[C@H]1CC(c2ccccc2C(=O)O)=NO1)C(=O)O (racemic) |
| > 100 | > 100 | 13 |  |  | 4.91 | N[C@@H](C[C@@H]1CC(CCC(=O)O)=NO1)C(=O)O (racemic) |
| > 100 | > 100 | 68 |  |  |  | N[C@@H](C[C@H]1CC(/C=C/C(=O)O)=NO1)C(=O)O (racemic) |

From ChEMBL document CHEMBL3860077, “Synthesis and pharmacological evaluation of conformationally constrained glutamic acid higher homologues” (Bioorg Med Chem, 2016)
